Test results: patent US20130310362A1, “FUSED PYRIMIDINES” (BAYER PHARMA AKTIEGESELLSCHAFT, priority 2009, published 2013)

Legend:
[1] = tested on: Akt phosphorylation (Ser473) in MCF7 cells; experiment: Cellular PI3K/Akt pathway assay (Phospho-Akt1 (Ser473) sandwich ELISA); assay type: cell-based; conditions: Homo sapiens, β-Heregulin stimulated, 48 h incubation, read-out: IC50 p-Akt (Biological Assay 5.0)
Procedure: Biological Assay 5.0: Cellular PI3K/Akt Pathway Assay
In order to study the cellular activity of the compounds according to the present invention, an Enzyme Linked Immunosorbent Assay (ELISA)-based assay may be used to investigate the inhibitory effect on Akt phosphorylation.
The ELISA Kit detects endogenous levels of phosphorylated Akt protein. […] After incubation with cell lysates, the coated antibody captures the phosphorylated Akt protein. […] The magnitude of optical density for this developed color is proportional to the quantity of phosphorylated Akt protein. MCF7 cells (ATCC HTB-22) are seeded into 96 well fate bottom plates at a density of 10000 cells/well. 24 hours after seeding, the cells are serum starved using low-serum medium (IMEM media including 0.1% charcoal treated FCS (FCS: fetal calf serum)). After 24 hours 1 μl each of the compound dilutions (test compounds were dissolved as 10 mM solutions in dimethylsulfoxide (DMSO) and subsequently diluted) are added into each well of the 96 well plates and incubated for 48 h at 37° C. in a humidified athmosphere containing 5% CO2. To stimulate Akt phosphorylation, β-Heregulin (20 ng/mL β-HRG) is added in parallel to the compounds. Wells containing unstimulated control cells (no β-Heregulin stimulation) are incubated with or without the diluted compound. Wells containing untreated control cells (no compound) are filled with medium containing 0.5% v:v DMSO and are or are not stimulated with 3-Heregulin.
Cells are harvested and lysed with brief sonification in 1× cell lysis buffer (20 mM Tris (pH7.5), 150 mM NaCl, 1 mM ethylene diaminetetraacetate (EDTA), 1 mM ethylene glycolbis(2-aminoethyl)-N,N,N′,N′-tetraacetic acid (EGTA), 1 vol % Triton X-100, 2.5 mM sodium pyrophosphate, 1 mM β-glycerolphosphate, 1 mM Na3VO4, 1 μg/mL leupeptin). The lysate is centrifuged for 10 min. at 4° C. and the supernatant is transferred to a new tube. […] The absorbance is measured at λ=450 nm (Wallac Victor2; Perkin Elmer, USA) within 30 min. after adding the STOP solution. […]

[2] = biological target: T1, human recombinant kinase full-length Akt2 (Homo sapiens, UniProt P31751); experiment: Akt2 kinase assay (TR-FRET); assay type: biochemical; conditions: Akt2 activated by PDK1, 10 μM ATP, 1 μM peptide substrate, 60 min at 22° C.; read-out: IC50 Akt2 (Biological Assay 2.0)
T1 construct: human recombinant kinase full-length Akt2; His; purchased Invitrogen PV 3975; host or cells: insect cells
Text: Biological Assay 2.0: Akt2 Kinase Assay
Akt2 inhibitory activity of compounds of the present invention was quantified employing the Akt2 TR-FRET assay as described in the following paragraphs.
(§1) His-tagged human recombinant kinase full-length Akt2 expressed in insect cells and activated by PDK1 was purchased form Invitrogen (part number PV 3975). As substrate for the kinase reaction the biotinylated peptide biotin-Ahx-KKLNRTLSFAEPG (C-terminus in amide form) was used which can be purchased e.g. from the company Biosynthan GmbH (Berlin-Buch, Germany). For the assay 50 nl of a 100 fold concentrated solution of the test compound in DMSO was pipetted into a black low volume 384 well microtiter plate (Greiner Bio-One, Frickenhausen, Germany), 2 μl of a solution of Akt2 in assay buffer [50 mM TRIS/HCl pH 7.5, 5 mM MgCl2, 1 mM dithiothreitol, 0.02% (v/v) Triton X-100 (Sigma)] were added and the mixture was incubated for 15 min at 22° C. to allow pre-binding of the test compounds to the enzyme before the start of the kinase reaction. Then the kinase reaction was started by the addition of 3 μl of a solution of adenosine-tri-phosphate (ATP, 16.7 μM=>final conc. in the 5 μl assay volume is 10 μM) and substrate (1.67 μM=>final conc. in the 5 μl assay volume is 1 μM) in assay buffer and the resulting mixture was incubated for a reaction time of 60 min at 22° C. The concentration of Akt2 in the assay was adjusted depending of the activity of the enzyme lot and was chosen appropriate to have the assay in the linear range, typical enzyme concentrations were in the range of about 0.2 ng/μl (final conc. in the 5 μl assay volume).
(§2) The reaction was stopped by the addition of 5 μl of a solution of HTRF detection reagents (200 nM streptavidine-XL665 [Cisbio] and 1.5 nM anti-phosho-Serine antibody [Millipore, cat. #35-001] and 0.75 nM LANCE Eu-W 1024 labeled anti-mouse IgG antibody [Perkin Elmer]) in an aqueous EDTA-solution (100 mM EDTA, 0.1% (w/v) bovine serum albumin in 50 mM HEPES/NaOH pH 7.5). The resulting mixture was incubated 1 h at 22° C. to allow the binding of the biotinylated phosphorylated peptide to the streptavidine-XL665 and the antibodies. Subsequently the amount of phosphorylated substrate was evaluated by measurement of the resonance energy transfer from the anti-mouse-IgG-Eu-Chelate to the streptavidine-XL665. Therefore, the fluorescence emissions at 620 nm and 665 nm after excitation at 350 nm was measured in a TR-FRET reader, e.g. a Rubystar (BMG Labtechnologies, Offenburg, Germany) or a Viewlux (Perkin-Elmer). The ratio of the emissions at 665 nm and at […] was taken as the measure for the amount of phosphorylated substrate. The data were normalised (enzyme reaction without inhibitor=0% inhibition, all other assay components but no enzyme=100% inhibition).

[3] = biological target: T2, human recombinant kinase full-length Akt1 (Homo sapiens, UniProt P31749); experiment: Akt1 kinase assay (TR-FRET); assay type: biochemical; conditions: 10 μM ATP, 1 μM peptide substrate, 60 min at 22° C.; read-out: IC50 Akt1 Biological Assay 1.0)
T2 construct: human recombinant kinase full-length Akt1; His; purchased Invitrogen PV 3599; host or cells: insect cells
Text: Biological Assay 1.0: Akt1 Kinase Assay
Akt1 inhibitory activity of compounds of the present invention may be quantified employing the Akt1 TR-FRET assay as described in the following paragraphs.
His-tagged human recombinant kinase full-length Akt1 expressed in insect cells was purchased form Invitrogen (part number PV 3599). As substrate for the kinase reaction the biotinylated peptide biotin-Ahx-KKLNRTLSFAEPG (C-terminus in amide form) was used which can be purchased e.g. from the company Biosynthan GmbH (Berlin-Buch, Germany).
as §1, with “For” for “His-tagged human recombinant kinase full-length Akt2 expressed in insect cells and activated by PDK1 was purchased form Invitrogen (part number PV 3975). As substrate for the kinase reaction the biotinylated peptide biotin-Ahx-KKLNRTLSFAEPG (C-terminus in amide form) was used which can be purchased e.g. from the company Biosynthan GmbH (Berlin-Buch, Germany). For”, “Akt1” for “Akt2”, “0.05” for “0.2”
as §2, with “HTRF” for “TR-FRET”, “inhibition). Normally test compound were tested on the same microtiter plate at 10 different concentrations in the range of 20 μM to 1 nM (20 μM, 6.7 μM, 2.2 μM, 0.74 μM, 0.25 μM, 82 nM, 27 nM, 9.2 nM, 3.1 nM and 1 nM, dilution series prepared before the assay at the level of the 100 fold conc. stock solutions by serial 1:3 dilutions) in duplicate values for each concentration and […] were calculated by a 4 parameter fit using an inhouse software.” for “inhibition).”

T1 sequence (P31751 whole entry): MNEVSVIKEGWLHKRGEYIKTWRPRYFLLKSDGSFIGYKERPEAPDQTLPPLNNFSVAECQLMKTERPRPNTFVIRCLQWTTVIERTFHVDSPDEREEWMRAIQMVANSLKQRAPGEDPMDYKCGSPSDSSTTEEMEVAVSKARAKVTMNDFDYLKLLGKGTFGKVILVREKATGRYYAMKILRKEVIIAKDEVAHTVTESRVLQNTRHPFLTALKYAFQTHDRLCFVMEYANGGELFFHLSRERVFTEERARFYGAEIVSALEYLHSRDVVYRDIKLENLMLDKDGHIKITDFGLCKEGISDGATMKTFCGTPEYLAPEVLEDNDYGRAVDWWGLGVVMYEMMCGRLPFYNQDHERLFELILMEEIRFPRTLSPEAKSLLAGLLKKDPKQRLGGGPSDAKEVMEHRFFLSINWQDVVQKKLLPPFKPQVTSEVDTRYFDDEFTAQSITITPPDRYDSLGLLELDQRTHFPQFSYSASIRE
T2 sequence (P31749 whole entry): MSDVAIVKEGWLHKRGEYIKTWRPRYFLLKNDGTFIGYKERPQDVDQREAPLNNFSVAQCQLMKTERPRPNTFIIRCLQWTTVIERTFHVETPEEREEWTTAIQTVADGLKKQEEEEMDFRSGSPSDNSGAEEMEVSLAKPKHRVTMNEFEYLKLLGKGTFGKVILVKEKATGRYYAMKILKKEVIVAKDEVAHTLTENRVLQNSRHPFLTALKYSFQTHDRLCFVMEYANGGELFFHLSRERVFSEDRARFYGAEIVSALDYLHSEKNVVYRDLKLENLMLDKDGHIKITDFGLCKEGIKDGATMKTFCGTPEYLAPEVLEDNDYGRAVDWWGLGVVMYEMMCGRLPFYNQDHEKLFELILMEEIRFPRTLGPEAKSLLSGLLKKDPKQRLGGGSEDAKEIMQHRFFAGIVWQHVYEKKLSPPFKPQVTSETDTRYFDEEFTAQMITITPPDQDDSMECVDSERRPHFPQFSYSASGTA

IC50 [1] [nM]	IC50 [2] [nM]	IC50 [3] [nM]	SMILES
< 50	53	4	Cc1nc(-c2ccc(CN3CCC(c4n[nH]c(-c5ccccn5)n4)CC3)cc2)c(-c2ccccc2)c2nccn12 [Example 1.0, 5-methyl-8-phenyl-7-{4-[4-(5-pyridin-2-yl-1H-[1,2,4]triazol-3-yl)-piperidin-1-ylmethyl]-phenyl}-imidazo[1,2-c]pyrimidine]
8	42	8	c1ccc(-c2c(-c3ccc(CN4CCC(c5n[nH]c(-c6ccccn6)n5)CC4)cc3)ncn3ccnc23)cc1 [Example 2.0, 8-phenyl-7-{4-[4-(5-pyridin-2-yl-1H-[1,2,4]triazol-3-yl)-piperidin-1-ylmethyl]-phenyl}-imidazo[1,2-c]pyrimidine]
